The record followed here is US7977379B2, “Method for angiogenesis inhibition or immunostimulation” (priority 2002, dated 2011).

SMILES strings stand for the structures.

Test [1] has as its system angiogenesis induced by means of MATRIGEL matrix (heparin, a-FGF). The test can be described thus: Test Example 1: angiogenesis induced by […] matrix transplanted subcutaneously (method of Passaniti et al). The note with it: for angiogenesis inhibition effect (in words): MATRIGEL weight and hemoglobin vs control group; for MATRIGEL Matrix weight / Quantity of hemoglobin: sixth day, n=5, mean±SE; for MATRIGEL Matrix weight: freeze-dried. The test is classed as in vivo, C57BL/6 female mice. From the text: Angiogenesis inhibition action of anhydrous glutamic acid, its derivatives, and various processed materials containing them concerning the present invention was examined by degree of angiogenesis induced by means of […]™ matrix (made by Becton Dikinson Labware Company, it is “cell culture backing material”, following “[…]”.) according to a method of Passaniti et al (Laboratory Invest., Vol. 67, Page 519-528, 1992).
An example of the […] matrix is shown with the following: BD Matrigel Basement Membrane Matrix is a solubilized basement membrane preparation extracted from the Engelbreth-Holm-Swarm (EHS) mouse sarcoma, a tumor rich in ECM proteins. Its major component is laminin, followed by collagen IV, heparan sulfate proteoglycans, entactin and nidogen.35 It also contains TGF-β fibroblast growth factor, tissue plasminogen activator36 and other growth factors which occur naturally in the EHS tumor. At room temperature, BD Matrigel Matrix polymerizes to produce biologically active matrix material resembling the mammalian cellular basement membrane.
More specifically, normal mice (5 mice/1 group) were used after breeding C57BL/6 female mice (5 week old, purchased from Charles River JAPAN, Inc.) preliminarily for one week. While cooling test materials as shown in the following, each of the test materials 0.5 ml were transplanted to subcutaneous of abdomen of the mice. […] was taken out on the sixth day after transplantation, and state of angiogenesis was observed. In addition, the […] was freeze-dried, and it was estimated the weight. Furthermore, pure water 1 ml was added to the […]. After homogenizing by Polytron and centrifuging at 2000 rpm for five minutes, supernatant was filtrated through filter with 0.2 μm and hemoglobin dosage was measured by using Hemoglobin-TestWako™ (made by Wako Pure Chemical Industries, Ltd.).
Group 0 of nothing addition: […]
Control group: […], heparin (64 units), Acidic Fibroblast Growth Factor (it is abbreviated to a-FGF as follows.) (1 ng/ml)
Group 1 of test material addition: […], heparin (64 units), a-FGF (1 ng/ml), sample 3 (800 μg/ml)
Group 2 of test material addition: […], heparin (64 units), a-FGF (1 ng/ml), sample 3 (400 μg/ml)
Group 3 of test material addition: […], heparin (64 units), a-FGF (1 ng/ml), sample 3 (200 μg/ml)
Group 4 of test material addition: […], heparin (64 units), a-FGF (1 ng/ml), sample 4 (800 μg/ml)
Group 5 of test material addition: […], heparin (64 units), a-FGF (1 ng/ml), sample 1 (600 μg/ml)
Group 6 of test material addition: […], heparin (64 units), a-FGF (1 ng/ml), sample 2 (800 μg/ml)
Group 7 of test material addition: […], heparin (64 units), a-FGF (1 ng/ml), sample1+sample 3 (for each 200 μg/ml)
Group 8 of test material addition: […], heparin (64 units), a-FGF (1 ng/ml), sample 5 (600 μg/ml)
Group 9 of test material addition: […], heparin (64 units), a-FGF (1 ng/ml), reference sample 1 (800 μg/ml)
As is apparent from each table, in control group, angiogenesis was promoted remarkably and weight of […] and hemoglobin dosage were increased compared with a group 0 of nothing addition. […] However, the angiogenesis inhibition effect was small with reference sample 1 (hot water extract of an agaricus mushroom).

Test [2] has the same test system. The test can be described thus: Test Example 4: angiogenesis induced by […] matrix (same method as test example 1). It counts as in vivo, C57BL/6 female mice. The note with it: for angiogenesis inhibition effect (in words): MATRIGEL weight and hemoglobin vs control group; for MATRIGEL weight / Quantity of hemoglobin: sixth day, n=5, mean±SE. On the procedure:
More specifically, normal mice (5 mice/1 group) were used after breeding C57BL/6 female mice (5 week old, purchased from Charles River JAPAN, Inc.) preliminarily for one week. While cooling test materials as shown in the following, each of the test materials 0.5 ml were transplanted to subcutaneous of abdomen of the mice. […] was taken out on the sixth day after transplantation, and state of angiogenesis was observed. In addition, the […] was freeze-dried, and it was weighed. […] Group 0 of nothing addition: […]

[3] abbreviates: material 800 μg/mL in MATRIGEL with heparin and a-FGF.
The mark [4] stands for this setting: material 200 μg/mL in MATRIGEL with heparin and a-FGF.
Setting [5] is: material 400 μg/mL in MATRIGEL with heparin and a-FGF.

For the molecule `Cl.NC(CCC(=O)O)C(=O)O` (racemic) [sample 4, anhydrous DL-glutamate acid hydrochloride], in test [1], the “angiogenesis inhibition effect (in words)” value is “slightly low, but almost equal to sample 3”. Further, in test [1] (setting [3]), the “MATRIGEL Matrix weight” value is 237.3 ± 30.1 mg and the Quantity of hemoglobin is on record as 13.0 ± 2.9 mg.

On to `O=C1CCC(C(=O)O)N1.[Na]` (racemic) [sample 9, DL-pyroglutamic acid sodium], for which, in test [2], the “angiogenesis inhibition effect (in words)” value is given as “slightly low, but almost equal to sample 8”. In test [2] (setting [3]), this molecule had an MATRIGEL weight of 209.0 ± 30.8 mg and a Quantity of hemoglobin of 15.8 ± 2.7 mg/MATRIGEL.

Regarding `C[C@H](N)C(=O)O` [alanine, reference compound], the “angiogenesis inhibition effect (in words)” value in test [2] is reported as “not recognized”.

For `O=C(O)[C@@H]1CCCN1` [proline, reference compound], the “angiogenesis inhibition effect (in words)” value in test [2] was “not recognized”.

Consider `Cl.N[C@@H](CCC(=O)O)C(=O)O` [sample 3, anhydrous L-glutamate acid hydrochloride], for which the “angiogenesis inhibition effect (in words)” value in test [1] was “excellent angiogenesis inhibition effect”. In addition, the figures for the “MATRIGEL Matrix weight” value in test [1] (setting [4]), in test [1] (setting [5]) and in test [1] (setting [3]) were 276.6 ± 27.6 mg, 232.2 ± 52.7 mg and 110.9 ± 11.4 mg, respectively. Moreover, the Quantity of hemoglobin in test [1] (setting [4]) is on record as 21.5 ± 4.0 mg; in test [1] (setting [5]) it was 15.5 ± 4.6 mg; in test [1] (setting [3]), 3.9 ± 0.5 mg.

With `O=C1CC[C@@H](C(=O)O)N1.[Na]` [sample 8, L-pyroglutamic acid sodium], the “angiogenesis inhibition effect (in words)” value in test [2] was “excellent angiogenesis inhibition effect”. The MATRIGEL weight was found to be 265.3 ± 18.6 mg in test [2] (setting [4]), 190.2 ± 30.4 mg in test [2] (setting [5]) and 121.5 ± 28.1 mg in test [2] (setting [3]). In addition, the Quantity of hemoglobin is 23.4 ± 2.0 mg/MATRIGEL in test [2] (setting [4]), 17.5 ± 3.6 mg/MATRIGEL in test [2] (setting [5]) and 4.8 ± 1.2 mg/MATRIGEL in test [2] (setting [3]).
